Like-named read-outs stand apart in the source and are kept apart here. Positions of bridges follow the written chain, without caps; N, C: chain ends. Non-standard residues stand in square brackets, D forms with d. Residues, ends and D or L forms follow the SMILES beside them. *: point of attachment. NMeF = CN[C@@H](Cc1ccccc1)C(=O)O; NMeI = CC[C@H](C)[C@H](NC)C(=O)O; NMeL = CN[C@@H](CC(C)C)C(=O)O; NMeA = CN[C@@H](C)C(=O)O; Piperidide = C1CCN(*)CC1; dNMeA = CN[C@H](C)C(=O)O; NPrGly = CCCNCC(=O)O; Sar = CNCC(=O)O; tBu = CC(C)(C)*
Key:
[1] = PAMPA (parallel artificial membrane permeability assay); type: in vitro ADME; conditions: PAMPA
Summary of the method: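 Artificial membrane was 10% (w/v) egg lecithin plus 0.5% (w/v) cholesterol in dodecane on a PVDF filter. A 10 mM DMSO stock was added at 0.5% (v/v) to donor buffer (50 mM MOPSO, pH 6.5, 5.0% glycocholic acid). After 18 h at 37 °C, LC/MS or LC/UV gave donor and acceptor levels for Pe.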

[2] = Metabolic stability in human hepatic microsome; type: in vitro ADME; conditions: microsomes
[3] = Mouse PK test of peptides (intravenous and oral administration); conditions: male, C57BL/6J, in vivo, 20 mg/kg
[4] = membrane permeation rate (Pe), 50 mM MOPSO buffer pH 6.5 with 5.0% glycocholic acid, 37° C., 18 hours, read-out: iPAMPA Pe
[5] = pH 7.4, human hepatic microsome, NADPH(+), read-out: CL NADPH(+)

SMILES | Papp at 18 hours, 50 µM [1, 4] [×10⁻⁶ cm/s] | microsomal CLint at 1 uM [2, 5] [µL/min/mg] | AUC ([3]; iv) [ng·h/mL] | C0 ([3]; iv) [ng/mL] | Vd ([3]; iv) [L/kg] | clearance ([3]; iv) [mL/min/kg] | half-life ([3]; iv) [h] | AUC ([3]; po) [ng·h/mL] | CL/F ([3]; po) [mL/min/kg] | Cmax ([3]; po) [ng/mL] | Tmax ([3]; po) [h] | bioavailability ([3]; po) [%] | half-life ([3]; po) [h] | Papp at 18 hours, 50 µM ([1]; pH 6.5) [×10⁻⁶ cm/s] | microsomal CLint at 1 uM ([2]; human, pH 7.4, CL NADPH(+)) [µL/min/mg]
CC(C)C[C@@H]1NC(=O)[C@H](Cc2ccccc2)N(C)C(=O)[C@H](Cc2ccccc2)N(C)C(=O)[C@H](CC(C)C)NC(=O)[C@H](C)N(C)C(=O)[C@H]([C@@H](C)O)NC(=O)[C@H](C)N(C)C(=O)C[C@@H](C(=O)N2CCCCC2)NC(=O)[C@H](CC(C)C)N(C)C1=O [DP-125] ([NMeA]T[NMeA]L[NMeF][NMeF]L[NMeL]D-Piperidide; lactam N-9) | 55 | 189 | 35400 | 46400 | 0.545 | 9.49 | 1.44 | 12100 | 27.5 | 3090 | 3.5 | 34.6 |  |  | 
CC[C@H](C)[C@H]1C(=O)N[C@H](C(=O)N2CCCCC2)CC(=O)N[C@H](C(C)C)C(=O)N(C)[C@@H](Cc2ccccc2)C(=O)N(C)[C@@H](CC(C)C)C(=O)N[C@@H]([C@@H](C)O)C(=O)N(C)CC(=O)N(C)[C@@H](CC(C)C)C(=O)N[C@@H](COC(C)(C)C)C(=O)N1C [DP-265] ([dV][NMeF][NMeL]T[Sar][NMeL]S(tBu)[NMeI]D-Piperidide; lactam N-9) | 42 | 58 | 35300 | 58300 | 0.713 | 9.48 | 1.82 | 5120 | 65.1 | 2850 | 0.67 | 14.5 | 1.96 |  | 
CCCN1CC(=O)N(C)[C@@H](CC(C)C)C(=O)N[C@@H]([C@@H](C)O)C(=O)N(C)[C@@H](C)C(=O)N(C)[C@@H](CC(C)C)C(=O)N(C)[C@@H]([C@@H](C)CC)C(=O)N[C@@H](COC(C)(C)C)C(=O)N[C@H](C(=O)N2CCCCC2)CC(=O)N(C)[C@@H](C)C(=O)N(C)[C@@H](Cc2ccccc2)C1=O [DP-540] ([NMeA][NMeF][NPrGly][NMeL]T[NMeA][NMeL][NMeI]S(tBu)D-Piperidide; lactam N-10) | 36 | 67 | 41400 | 48100 | 0.803 | 8.16 | 1.63 | 9800 | 35.8 | 1870 | 1.83 | 23.7 | 3.11 |  | 
CC[C@H](C)[C@@H]1NC(=O)[C@H](C)N(C)C(=O)[C@H](CC(C)C)N(C)C(=O)[C@H](Cc2ccccc2)NC(=O)[C@H](CC(C)C)N(C)C(=O)[C@H](CC(C)C)N(C)C(=O)[C@H](C)N(C)C(=O)[C@H](Cc2ccccc2)N(C)C(=O)[C@@H](C)N(C)C(=O)C[C@@H](C(=O)N[C@H](C(=O)N2CCCCC2)[C@@H](C)CC)NC(=O)[C@H](CC(C)C)N(C)C(=O)[C@H]([C@@H](C)O)NC(=O)[C@H](COC(C)(C)C)NC1=O [DP-963] ([dNMeA][NMeF][NMeA][NMeL][NMeL]F[NMeL][NMeA]IS(tBu)T[NMeL]DI-Piperidide; lactam N-13) | 0.1 | 18 |  |  |  |  |  |  |  |  |  |  |  |  | 
CC[C@H](C)[C@@H]1NC(=O)[C@H](Cc2cccc(Cl)c2)N(C)C(=O)[C@H](CC(C)C)N(C)C(=O)C[C@@H](C(=O)N2CCCCC2)NC(=O)[C@H](CC(C)C)N(C)C(=O)[C@H](CC(C)C)N(C)C(=O)[C@H](CC(C)C)NC(=O)[C@H](C)N(C)C(=O)[C@@H](NC(=O)[C@H](CC(C)C)N(C)C(=O)[C@@H]2CCCN2C(=O)CO)CCCCNC1=O [DP-964, ^HOGly-Pro-MeLeu-*Lys-MeAla-Leu-MeLeu-MeLeu-Asp-piperidine-MeLeu-MePhe(3-Cl)-Ile* (cyclized at two * sites)] |  |  |  |  |  |  |  |  |  |  |  |  |  | 8.9 | 38

— patent US9409952B2, “Peptide-compound cyclization method” (Chugai Seiyaku Kabushiki Kaisha, priority 2011, dated 2016)
